11 molecules from ChEMBL document CHEMBL1201862, “PubChem BioAssay data set” (2004) can be followed below.

Among the test systems are NCI-H226; SK-MEL-28; SNB-19; OVCAR-8; DU-145; A549; SN12C; MOLT-4; KM12; ACHN; OVCAR-5; MDA-MB-231; COLO 205; MDA-MB-435; SF-268; SF-539; U-251; SK-MEL-2; NCI-H23.
Common to all, as to experiment: NCI anticancer screen, dose series, 48 h

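Each compound was tested at five concentrations against cells in 96-well plates for 48 hours. GI50 is the concentration that inhibits growth by half.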 The source made the active and inactive calls. No stated cut-off is given here; in the data, active = GI50 up to about 1.1 µM and inactive = higher.

`COc1nc2c(c(=O)n1C)N[C@H]1[C@H](OC(C)=O)[C@@H](OC(C)=O)CO[C@H]1N2`: the GI50 with NCI-H226, in the assay on SK-MEL-28, in the assay with SNB-19, in the assay on OVCAR-8, in the assay on DU-145 and in the assay with A549 was > 100 µM (inactive) each time. Further, the GI50 in the assay with SN12C, in the assay on MOLT-4, in the assay on KM12, in the assay on ACHN, in the assay with OVCAR-5 and with MDA-MB-231 was > 100 µM (inactive) in each case. Also, the GI50 in the assay with COLO 205, with MDA-MB-435, with SF-268, in the assay with SF-539, in the assay with U-251 and in the assay with SK-MEL-2 was > 100 µM (inactive) throughout.

On to `COc1ccc2c(c1)[C@@]13CCCC[C@H]1[C@@H](C2)N(C)CC3=O`, for which the GI50 was 21.3 µM (inactive) in the assay with NCI-H226; 16.1 µM (inactive) in the assay with SK-MEL-28; 76.9 µM (inactive) in the assay with SNB-19; 19.3 µM (inactive) with OVCAR-8; 21.8 µM (inactive) in the assay on DU-145; 19.9 µM (inactive) with A549. The GI50 was 21.4 µM (inactive) with SN12C; 19.7 µM (inactive) with MOLT-4; 18.1 µM (inactive) with KM12; 16.6 µM (inactive) in the assay with ACHN; 17.3 µM (inactive) with OVCAR-5; 18.5 µM (inactive) in the assay with MDA-MB-231. The GI50 is 17.5 µM (inactive) in the assay with NCI-H23; 17.3 µM (inactive) in the assay with COLO 205; 19 µM (inactive) in the assay on MDA-MB-435; 17.2 µM (inactive) in the assay with SF-268; 22.2 µM (inactive) in the assay on U-251; 25.2 µM (inactive) in the assay with SK-MEL-2.

Turning to `CCCC(=O)OCC1OC(n2cc(F)c(=O)[nH]c2=O)CC1OC(=O)CCC` (configuration not stated), the GI50 is 5.53 µM (inactive) in the assay with NCI-H226; > 6.68 µM (inactive) with SK-MEL-28; 0.203 µM (active) with OVCAR-8; 0.156 µM (active) in the assay on DU-145; 0.0578 µM (active) in the assay on A549; 0.346 µM (active) in the assay on SN12C. For the same molecule, the GI50 is 4.63 µM (inactive) in the assay with MOLT-4; > 5.02 µM (inactive) in the assay on KM12; 0.0441 µM (active) with ACHN; > 10 µM (inactive) in the assay on OVCAR-5; > 10 µM (inactive) with MDA-MB-231; 0.278 µM (active) in the assay with NCI-H23. In addition, the GI50 with COLO 205 is > 6.5 µM (inactive); in the assay with MDA-MB-435, 3.95 µM (inactive); in the assay with SF-268 it was 0.0368 µM (active); in the assay on SF-539, 0.00511 µM (active); in the assay with U-251, 3.26 µM (inactive); in the assay with SK-MEL-2, > 10 µM (inactive).

As to `CC(=O)NC1C(OCC(=O)NC(C)C(=O)NC(CCC(=O)NCCCCCNc2ccc([N+](=O)[O-])c3[nH]c4ccccc4c(=O)c23)C(N)=O)C(O)C(CO)OC1(C)OCc1ccccc1` (configuration not stated), the GI50 with NCI-H226 is > 50 µM (inactive); in the assay on SNB-19, 33.3 µM (inactive); with OVCAR-8 it was > 50 µM (inactive); with DU-145, > 50 µM (inactive); in the assay with A549 it was > 50 µM (inactive); in the assay with SN12C, 19.6 µM (inactive). In addition, the GI50 in the assay on MOLT-4 was 13.3 µM (inactive); in the assay on KM12, > 50 µM (inactive); in the assay with ACHN, 31.6 µM (inactive); in the assay with OVCAR-5, > 50 µM (inactive); with MDA-MB-231 it was 12 µM (inactive); in the assay on NCI-H23 it was > 50 µM (inactive). The GI50 was > 50 µM (inactive) in the assay on COLO 205; > 50 µM (inactive) with MDA-MB-435; 14.5 µM (inactive) in the assay with SF-268; > 50 µM (inactive) in the assay on SF-539; 39.3 µM (inactive) in the assay on U-251; > 50 µM (inactive) in the assay on SK-MEL-2.

With `CC1=CCC[C@H]2[C@](C)(CC3=CC(=O)C4SCCSC4C3=O)[C@@H](C)CC[C@]12C` (some centres not stated), the GI50 in the assay with NCI-H226 is 15.9 µM (inactive); in the assay on SK-MEL-28 it was 18 µM (inactive); with SNB-19, 19 µM (inactive); with OVCAR-8, 19.2 µM (inactive); in the assay on DU-145, 24.5 µM (inactive); in the assay on A549 it was 17.2 µM (inactive). In addition, the GI50 is 14.7 µM (inactive) in the assay with SN12C; 21.6 µM (inactive) in the assay on MOLT-4; 29 µM (inactive) in the assay on KM12; 18.2 µM (inactive) in the assay on ACHN; 18.6 µM (inactive) in the assay with OVCAR-5; 13.2 µM (inactive) in the assay on MDA-MB-231. Further, the GI50 was 13.2 µM (inactive) in the assay on NCI-H23; 17.7 µM (inactive) in the assay with COLO 205; 8.09 µM (inactive) with MDA-MB-435; 21 µM (inactive) in the assay on SF-539; 14.5 µM (inactive) in the assay with U-251; 1.71 µM (inactive) with SK-MEL-2.

As for `COC1CCC(OC2CC(C3(C)CCC4(CC(O)C(C)C(C(C)/C=C(\C)C(=O)C(C)CC(C)C(=O)O)O4)O3)OC3(OC(C4OC(O)(CO)C(C)CC4C)CC3C)C2C)OC1C` (configuration not stated), the GI50 in the assay with NCI-H226 was 0.378 µM (active); with SK-MEL-28, 0.0362 µM (active); in the assay with SNB-19, 0.0434 µM (active); in the assay with OVCAR-8, < 0.0368 µM (active); with DU-145, < 0.0501 µM (active); in the assay with A549, < 0.0154 µM (active). In addition, the GI50 in the assay with SN12C was < 0.0319 µM (active); with MOLT-4 it was < 0.01 µM (active); with KM12, 0.0753 µM (active); with ACHN, < 0.038 µM (active); in the assay with OVCAR-5 it was 2.99 µM (inactive); with MDA-MB-231, 0.0621 µM (active). For the same molecule, the GI50 in the assay on NCI-H23 was < 0.0345 µM (active); in the assay on COLO 205 it was < 0.0154 µM (active); in the assay on MDA-MB-435 it was 0.0923 µM (active); with SF-539, 0.0453 µM (active); in the assay with U-251 it was < 0.0166 µM (active); in the assay on SK-MEL-2, 0.161 µM (active).

Regarding `CC(C)(CC(O)C#N)/[N+]([O-])=[N+](\[O-])C(C)(C)CC(O)C#N` (configuration not stated), the GI50 in the assay with NCI-H226 was 25.6 µM (inactive); in the assay on SK-MEL-28 it was 26.6 µM (inactive); in the assay on SNB-19 it was 84.3 µM (inactive); in the assay on OVCAR-8, 32.3 µM (inactive); in the assay on DU-145, 30.5 µM (inactive); in the assay on A549, 57.4 µM (inactive). Moreover, the GI50 in the assay with SN12C is 19.3 µM (inactive); in the assay on MOLT-4, 10.3 µM (inactive); in the assay on KM12, 30.7 µM (inactive); with ACHN it was 23.2 µM (inactive); in the assay with OVCAR-5, 23.5 µM (inactive); in the assay with MDA-MB-231, 23.9 µM (inactive). The GI50 in the assay on NCI-H23 was 25.4 µM (inactive); in the assay with COLO 205, 14.8 µM (inactive); with MDA-MB-435, 32.9 µM (inactive); in the assay with SF-268, 23.4 µM (inactive); in the assay on U-251, 26.5 µM (inactive); in the assay on SK-MEL-2 it was 43 µM (inactive).

Regarding `CN(C)CCCN1c2ccccc2CCc2cc([N+](=O)[O-])ccc21`, the GI50 is 24 µM (inactive) in the assay with NCI-H226; 28.6 µM (inactive) with SNB-19; 24.6 µM (inactive) in the assay on OVCAR-8; 24.4 µM (inactive) with DU-145; 24.6 µM (inactive) in the assay with A549; 22.9 µM (inactive) with SN12C. The GI50 in the assay on MOLT-4 was 26.2 µM (inactive); in the assay on KM12 it was 26.4 µM (inactive); in the assay with ACHN it was 29.4 µM (inactive); in the assay on OVCAR-5, 25.5 µM (inactive); in the assay with MDA-MB-231 it was 22.2 µM (inactive); in the assay on NCI-H23 it was 26.5 µM (inactive). Moreover, the GI50 is 21 µM (inactive) in the assay with COLO 205; 21.6 µM (inactive) in the assay on MDA-MB-435; 20 µM (inactive) in the assay with SF-268; 24.1 µM (inactive) with SF-539; 26.3 µM (inactive) in the assay with U-251; 21.1 µM (inactive) in the assay with SK-MEL-2.

For `CCCN1CCC(=O)N(CCC(F)(F)C(F)(F)C(F)(F)C(F)(F)C(F)(F)C(F)(F)F)C1=S`, the GI50 in the assay with NCI-H226, with SK-MEL-28, in the assay with SNB-19, in the assay with OVCAR-8, with DU-145 and in the assay on A549 was > 100 µM (inactive) in each case. The GI50 is > 100 µM (inactive) in the assay with SN12C; > 100 µM (inactive) in the assay on MOLT-4; 71 µM (inactive) with KM12; > 100 µM (inactive) with ACHN; > 100 µM (inactive) in the assay on OVCAR-5; > 100 µM (inactive) in the assay on MDA-MB-231. Further, the GI50 with NCI-H23 is > 100 µM (inactive); in the assay with COLO 205 it was 69.7 µM (inactive); in the assay with MDA-MB-435 it was > 100 µM (inactive); with SF-268, > 100 µM (inactive); in the assay on SF-539 it was > 100 µM (inactive); in the assay on U-251 it was > 100 µM (inactive).

Take `CCOC(=O)c1cc2c3c(c(C(C)=O)c(OC)c2[nH]1)N(C(=O)CC)CC3`: the GI50 with NCI-H226 was 10.2 µM (inactive); in the assay with SK-MEL-28, 15.3 µM (inactive); in the assay with SNB-19 it was 12.8 µM (inactive); in the assay on OVCAR-8 it was 19.8 µM (inactive); in the assay on DU-145 it was 15.6 µM (inactive); with A549 it was 14 µM (inactive). The GI50 in the assay on SN12C is 20.9 µM (inactive); in the assay with MOLT-4 it was 4.05 µM (inactive); in the assay on KM12, 10.7 µM (inactive); in the assay on OVCAR-5 it was 27.7 µM (inactive); in the assay on MDA-MB-231, 4.25 µM (inactive); with NCI-H23, 11.9 µM (inactive). Also, the GI50 with COLO 205 is 18.2 µM (inactive); with MDA-MB-435, 15.6 µM (inactive); in the assay with SF-268, 16.4 µM (inactive); in the assay on SF-539, 19.8 µM (inactive); in the assay with U-251, 19.2 µM (inactive); with SK-MEL-2, 22.3 µM (inactive).

Regarding `CC1CC(C#N)=C2NCCCCN2C1=O` (configuration not stated), the GI50 with NCI-H226, in the assay on SK-MEL-28, in the assay on SNB-19, in the assay with OVCAR-8, in the assay with DU-145 and with A549 was > 100 µM (inactive) in each case. Further, the GI50 in the assay on SN12C, in the assay on MOLT-4, with KM12, in the assay on MDA-MB-231, in the assay with NCI-H23 and with COLO 205 was > 100 µM (inactive) each time. In addition, the GI50 in the assay on MDA-MB-435, with SF-268, in the assay on SF-539, in the assay on U-251 and in the assay on SK-MEL-2 was > 100 µM (inactive) each time.
